Patent US20210346359A1, “Use of CFTR Modulators For Treating Cerebrovascular Conditions” (Qanatpharma AG, priority 2018, published 2021)
Entries after “also recorded” stand apart in the source; their conditions may differ.

What was measured:
Type in all cases: in vivo, mouse
[1] = test system: posterior cerebral arteries; experiment: Phenylephrine responses of isolated posterior cerebral arteries
Description: Isolation and functional assessment of resistance arteries: Mouse olfactory (a first branch of the anterior cerebral artery) and PCAs were carefully dissected, cannulated onto micropipettes, stretched to their in vivo lengths and pressurized to 45 mmHg, as previously described (3,6); mouse skeletal muscle resistance arteries were dissected from the cremaster muscle, cannulated and pressurized to 60 mmHg. All functional experiments were conducted in 3-morpholinopropanesulfonic acid (MOPS) buffered saline at 37° C. with no perfusion. Vasomotor responses to phenylephrine (5 μmol/L for posterior cerebral arteries, 10 μmol/L for cremaster skeletal muscle arteries) provided an assessment of vessel viability at the beginning and end of each experiment. Arteries failing to show ≥25% constriction to phenylephrine were excluded.
Myogenic tone was calculated as the percent constriction in relation to the maximal diameter at each respective transmural pressure: tone (% of diamax)=[(diamax−diaactive)/diamax]×100, where diaactive is the vessel diameter in MOPS containing Ca^2+ and diamax is the diameter in Ca^2+-free MOPS. Analyses of vasomotor responses to phenylephrine used the same calculation, only in this case, diaactive represents the vessel diameter at steady state following application of the given agent and diamax represents the maximal diameter measured under Ca^2+-free conditions.

[2] = test system: mice with heart failure; experiment: MRI T2 mapping of cerebral edema in heart failure mice; conditions: HF mice, 3 mg/kg daily for 2 days
Description: Magnetic resonance imaging-based edema measurement: Edema was assessed by quantitative T2 mapping (12), using a 7 Tesla micro-MRI system (Bruker Corporation Biospec 70/30 USR; Ettlingen, Germany). The T2 mapping acquisition generated quantitative T2 maps in 9 contiguous 2D axial slices, with 1 mm thickness, covering the volume from the fore-brain through to the hind-brain. T2 maps were generated from T2-weighted images at echo times from 12 to 384 ms, using in-line Bruker software, via linear regression of the logarithmically-transformed signal magnitudes and the echo times on a per voxel basis. The T2 values were extracted using MIPAV software, using manually drawn regions-of-interest placed within the fore-, middle- and hind-brain T2 maps.

[3] = test system: mice with heart failure; experiment: Golgi stain / Sholl analysis of cortical neuron dendrite morphology in heart failure mice; conditions: 3 mg/kg i.p. daily for 2 weeks
Text: Brains were perfused with heparinized saline via transcardiac perfusion, isolated and processed stained utilizing a commercially available Rapid GolgiStain kit (FD NeuroTechnologies Inc.; Columbia, USA). The kit uses a modified Golgi-Cox staining procedure originally described by Glaser and Van der Loos (24). Briefly, isolated brain tissue samples were immersed in a kit-provided solution containing mercuric chloride, potassium dichromate and potassium chromate in the dark for 8 days; this was followed by a 6-day incubation with tissue protection solution. The brain samples were then washed, embedded in 4% low gelling agarose, sectioned in the coronal plane (150 μm thickness; Campden Instruments 7000 smz-2 vibrating microtome) and mounted onto gelatin-coated glass slides. The staining procedure was then completed using kit-provided developing/staining reagents, according to the manufacturer's instructions. […] We analyzed both the basal and apical dendrite networks of pyramidal cortical neurons from the frontal cortex, using a quantitative approach originally described by Shall (25). We utilized Image J software coupled with the semi-automated Simple Neurite Tracer plugin (both freely available from the NIH) to identify and digitally isolate the dendrite networks of a single cortical neuron from a 200× magnification hyperstack image. The center of the soma was marked with the pointer tool; dendrite morphology was then characterized by Sholl analysis (see https://imagej.net/Sholl_Analysis, version 3.7.4), using 5 μm intervals to a maximal radius of 300 μm. This analysis characterizes dendrite morphology in terms of dendrite intersections (i.e., branching) and dendrite length. For each treatment group, 2-4 neurons per mouse from 4 mice were analyzed under blinded conditions. To assess dendritic spine density (i.e., the number of small protrusions found on dendrites), we imaged 3rd branch order dendritic segments at 100× magnification. Spine density was measured as the number of spines per segment for the following segments: 20-50 μm from soma; 30-60 μm from soma; 50-80 μm from soma; and 60-100 μm from soma). This “sliding measurement” approach permits an assessment of how spine density changes over the length of dendritic branch. For each treatment group, spine density was measured in 2-4 pyramidal cortical neurons (2-4 third order branches per neuron) per mouse from 3-4 mice per group, under blinded conditions.

`O=C(Nc1ncc(C(c2ccccc2Cl)N2CCC(O)C2)s1)C1(c2ccc3c(c2)OCO3)CC1` (centres unmarked) [C18, 1-(benzo[d][1,3]dioxol-5-yl)-N-(5-((2-chlorophenyl)(3-hydroxypyrrolidin-1-yl)methyl)thiazol-2-yl)cyclopropanecarboxamide] was tested, and the phenylephrine dose-response relationship ([1]; posterior cerebral arteries from CFTR knockout mice, 3 mg/kg i.p. daily for 2 days, 3 mg/kg) was “not affected; also recorded: does not alter”, the “phenylephrine dose-response relationship normalized to basal tone, HF vs HF+C18” value ([1]; posterior cerebral arteries from HF mice, 3 mg/kg i.p. daily for 2 days, 3 mg/kg) was “curves overlap; also recorded: not significantly different” and the “phenylephrine dose-response relationship (tone), HF vs HF+C18” value ([1]; posterior cerebral arteries from HF mice, 3 mg/kg i.p. daily for 2 days, not normalized, 3 mg/kg) was “significant difference”. For the same molecule, the phenylephrine responses ([1]; posterior cerebral arteries from sham-operated mice, 3 mg/kg i.p. daily for 2 days, 3 mg/kg) was “does not affect; also recorded: does not alter”, the “log EC50 of phenylephrine response” value ([1]; posterior cerebral arteries, HF+C18 group, log scale) was −5.94±0.21 and the “cerebral edema (T2 relaxation times)” value [2] was “neither HF nor C18 treatment in the context of HF induces evident edema; also recorded: does not induce edema; also recorded: Neither HF nor C18 treatment in HF mice induces an alteration”. The “mean apical dendrite length (maximum radius), HF-induced reduction” value [3] was “normalized”, the “mean basal dendrite length (maximum radius), HF-induced reduction” value [3] was “normalized” and the “apical dendrite branching morphology (Sholl analysis)” value ([3]; HF mice, sham vs HF vs HF+C18) was “No differences”. For the same molecule, the “basal dendrite branching morphology (Sholl analysis)” value ([3]; HF mice, sham vs HF vs HF+C18) was “no differences” and the “mean apical dendrite spine density at 60-100 μm from soma, group difference” value ([3]; HF mice, sham vs HF vs HF+C18) was “does not reach statistical significance”.
